Assay results published in PMC9919957 (2023).

| melting point | Structure (SMILES) |
| --- | --- |
| 229 to 230 °C | O=C1CC(c2ccc(O)cc2)Oc2cc(OC3OC(CO)C(O)C3O)cc(O)c21 (centres unmarked) |
| 347 to 350 °C | NCC[C@H]1C[C@H](O)C(=O)O1 (hydrate or solvate) |
